Laboratory results as given in patent US20250107528A1, “PYRAZINE COMPOUNDS FOR THE CONTROL OF INVERTEBRATE PESTS” (BASF SE, priority 2021, published 2025).
Where two headings read alike, the source gives them in different places.

How the values were obtained:
Type in all cases: in vivo
[1] = test system: Aedes aegypti; experiment: whole plant or invertebrate; details: 48 h, larval mortality, 2 days, read-out: mortality in comparison with untreated controls
Protocol: B.5 Yellow Fever Mosquito (Aedes aegypti)
For evaluating control of yellow fever mosquito (Aedes aegypti) the test unit consisted of 96-well-microtiter plates containing 200 μl of tap water per well and 5-15 freshly hatched A. aegypti larvae.
The active compounds were formulated using a solution containing 75% (v/v) water and 25% (v/v) DMSO. Different concentrations of formulated compounds or mixtures were sprayed onto the insect diet at 2.5 μl, using a custom-built micro atomizer, at two replications.
After application, microtiter plates were incubated at 28±1° C., 80±5% RH for 2 days. Larval mortality was then visually assessed.

[2] = test system: Heliothis virescens; experiment: Tobacco budworm (Heliothis virescens) egg/larval test on insect diet in 96-well microtiter plates; details: 120 h, read-out: mortality in comparison with untreated controls
Protocol: B.2 Tobacco Budworm (Heliothis virescens)
For evaluating control of tobacco budworm (Heliothis virescens), the test unit consisted of 96-well-microtiter plates containing an insect diet and 15-25 H. virescens eggs.
The compounds were formulated using a solution containing 75% v/v water and 25% v/v DMSO. Different concentrations of formulated compounds were sprayed onto the insect diet at 10 μl, using a custom-built micro atomizer, at two replications.
After application, microtiter plates were incubated at about 28±1° C. and about 80±5% relative humidity for 5 days. Egg and larval mortality was then visually assessed.

[3] = test system: Myzus persicae; experiment: Green peach aphid (Myzus persicae) systemic test, artificial diet in 96-well microtiter plates; details: 72 h, read-out: mortality in comparison with untreated controls
Protocol: If not otherwise specified, the test solutions were prepared as follow:
The active compound was dissolved at the desired concentration in a mixture of 1:1 (vol:vol) distilled water:acetone. The test solution was prepared on the day of use.
B.1 Green Peach Aphid (Myzus persicae)
For evaluating control of green peach aphid (Myzus persicae) through systemic means, the test unit consisted of 96-well-microtiter plates containing liquid artificial diet under an artificial mem brane.
The compounds were formulated using a solution containing 75% v/v water and 25% v/v DMSO. Different concentrations of formulated compounds were pipetted into the aphid diet, using a custom built pipetter, at two replications.
After application, 5-8 adult aphids were placed on the artificial membrane inside the microtiter plate wells. The aphids were then allowed to suck on the treated aphid diet and incubated at about 23±1° C. and about 50±5% relative humidity for 3 days. Aphid mortality and fecundity was then visually assessed.

[4] = test system: Anthonomus grandis; experiment: Boll weevil (Anthonomus grandis) egg/larval test on insect diet in 96-well microtiter plates; details: 120 h, read-out: mortality in comparison with untreated controls
Protocol: B.3 Boll Weevil (Anthonomus grandis)
For evaluating control of boll weevil (Anthonomus grandis), the test unit consisted of 96-well-microtiter plates containing an insect diet and 5-10 A. grandis eggs.
The compounds were formulated using a solution containing 75% v/v water and 25% v/v DMSO. Different concentrations of formulated compounds were sprayed onto the insect diet at 5 μl, using a custom-built micro atomizer, at two replications.
After application, microtiter plates were incubated at about 25±1° C. and about 75±5% relative humidity for 5 days. Egg and larval mortality was then visually assessed.

[5] = test system: Spodoptera eridania; experiment: Southern armyworm (Spodoptera eridania), 2nd instar larvae, foliar spray on lima bean plants; details: 96 h, 2nd instar larvae on sprayed lima bean, 4 days after treatment, read-out: mortality in comparison with untreated controls
Protocol: B.4. Southern Armyworm (Spodoptera eridania), 2nd Instar Larvae
The active compounds were formulated by a Tecan liquid handler in 100% cyclohexanone as a 10,000-ppm solution supplied in tubes. The 10,000-ppm solution was serially diluted in 100% cyclohexanone to make interim solutions. These served as stock solutions for which final dilutions were made by the Tecan in 50% acetone:50% water (v/v) into 10 or 20 ml glass vials. A non-ionic surfactant (Kinetic®) was included in the solution at a volume of 0.01% (v/v). The vials were then inserted into an automated electrostatic sprayer equipped with an atomizing nozzle for application to plants/insects. Lima bean plants (variety Sieva) were grown 2 plants to a pot and selected for treatment at the 1st true leaf stage. Test solutions were sprayed onto the foliage by an auto-mated electrostatic plant sprayer equipped with an atomizing spray nozzle. The plants were dried in the sprayer fume hood and then removed from the sprayer. Each pot was placed into perforated plastic bags with a zip closure. Ten to 11 armyworm larvae were placed into the bag and the bags zipped closed. Test plants were maintained in a growth room at about 25° C. and about 20-40% relative humidity for 4 days, avoiding direct exposure to fluorescent light (14:10 light:dark photoperiod) to prevent trapping of heat inside the bags. Mortality and reduced feeding were assessed 4 days after treatment, compared to untreated control plants.

[6] = 2500 ppm, egg and larval mortality, 5 days
[7] = 2500 ppm, adult aphids on treated artificial diet, 3 days

CC(NC(=O)c1cc(C(F)(F)F)cc(C(F)(F)F)c1)c1nccnc1C(N)=NO (stereo not shown) [I-3, N-[1-[3-[N′-hydroxycarbamimidoyl]pyrazin-2-yl]ethyl]-3,5-bis(trifluoromethyl)benzamide]
≥ 75%: mortality at 2500 ppm [1] | mortality at 2500 ppm [2, 6] | mortality at 2500 ppm [3, 7] | mortality at 2500 ppm [4, 6]

CON=C(N)c1nccnc1C(C)NC(=O)c1cc(C(F)(F)F)cc(C(F)(F)F)c1 (stereo not shown) [I-5, N-[1-[3-[N′-methoxycarbamimidoyl]pyrazin-2-yl]ethyl]-3,5-bis(trifluoromethyl)benzamide]
≥ 75%: mortality at 2500 ppm [1] | mortality at 2500 ppm [2, 6] | mortality at 300 ppm [5] | mortality at 2500 ppm [3, 7] | mortality at 2500 ppm [4, 6]

CON=C(C)c1nccnc1C(C)N(CC1CC1)C(=O)c1cc(C(F)(F)F)cc(C2(C#N)CC2)c1 (stereo not shown) [I-9, 3-(1-cyanocyclopropyl)-N-(cyclopropylmethyl)-N-[1-[3-(N-methoxy-C-methyl-carbonimidoyl)pyrazin-2-yl]ethyl]-5-(trifluoromethyl)benzamide]
≥ 75%: mortality at 2500 ppm [1] | mortality at 300 ppm [5] | mortality at 2500 ppm [3, 7]

CON=C(C)c1nccnc1C(C)N(CC1CC1)C(=O)c1cc(Cl)cc(S(=O)(=O)c2ccc(F)cc2)c1 (stereo not shown) [I-17, 3-chloro-N-(cyclopropylmethyl)-5-(4-fluorophenyl)sulfonyl-N-[1-[3-(N-methoxy-C-methyl-carbonimidoyl)pyrazin-2-yl]ethyl]benzamide]
≥ 75%: mortality at 2500 ppm [1] | mortality at 300 ppm [5] | mortality at 2500 ppm [4, 6]

CCN(C)C(=NO)c1nccnc1C(C)NC(=O)c1cc(C(F)(F)F)cc(C(F)(F)F)c1 (stereo not shown) [I-170, N-[1-[3-(N-ethyl-N′-hydroxy-N-methyl-carbamimidoyl)pyrazin-2-yl]ethyl]-3,5-bis(trifluoromethyl)benzamide]
≥ 75%: mortality at 2500 ppm [1] | mortality at 2500 ppm [2] | mortality at 2500 ppm [3] | mortality at 2500 ppm [4]
